Tested on: S. aureus ATCC 6538
Assay: Quantitative modified AOAC Use Dilution Test, log reduction on stainless steel penicylinders
Assay type: cell-based
Settings: 5% Fetal bovine serum soil load, contact time 10 min., 10% of the product
Excerpt: Tests were done using the aforementioned modified version of the AOAC Use Dilution Test, to quantify the number of viable bacteria remaining on the stainless steel penicylinders. […] Starting populations are listed in parentheses.

`[Na+].[OH-]` [13% NaOH, sodium hydroxide] was tested, and the “Average Log Reduction” value (40° C.) was 2.69, the “Average Log Reduction” value (60° C.) was 7.00 and the “Average Log Reduction” value (RT) was 1.76.

From patent US7838485B2, “Biodegradable alkaline disinfectant cleaner with analyzable surfactant” (American Sterilizer Company, priority 2007, dated 2010)
